Reference: BindingDB's records for patent US20250304563 (Orum Therapeutics, 2025)

Molecular target: T1, Isoform Truncated 1 of E3 ubiquitin-protein ligase CBL-B [36-427] (Homo sapiens, UniProt Q13191)
T1 construct: 36-427
Test: Binding Affinity of Example 1 Compounds to Cbl-b Protein
Method: Compounds were assessed for binding activity to Cbl-b by their ability to compete with and displace a probe comprised of BODIPY-FL fluorophore conjugated to a Cbl-b inhibitor (see Example 54 in WO2020264398). In the assay, a 36-427 aa truncated form of Cbl-b with an N-terminus Avi-tag was incubated 20 mM HEPES pH 7.5, 150 mM NaCl, 0.01% Triton X-100, 0.1% BSA, 0.5 mM TCEP buffer with streptavidin-terbium (Cisbio). After one hour of incubation at room temperature, 1 uM each of fluorescent probe and compound were combined with the reaction mixture. Compounds with Cbl-b binding activity competitively displace the fluorophore tagged inhibitor thereby disrupting the FRET signal from the terbium-BODIPY-FL complex. The reaction mixtures were incubated for one additional hour at room temperature to allow for competition between inhibitor and candidate compounds to occur. The time resolved FRET (TR-FRET) signal was then read at 520/620 […] ([…]) using a Spectramax M5e plate reader (Molecular Devices) to measure probe displacement. Compounds with Cbl-b binding activity had decreased FRET signal owing to disruption of the terbium-BODIPY-FL FRET complex. Standard methods in PRISM were used to calculate the compound IC50 values from the experimental data.

IC50: in the range around 12.5 nM
Structure (SMILES): CCSc1cc(C2(Cc3nncn3C)COC2)cc(N2CC3C(C(N)=O)=CC(CN4CCC[C@H](C)C4)=CC3C2=O)n1 (stereo partly specified) [US20250304563, Compound 145]
